# Experiments:
# Assay in all cases: CHIR dose: hematopoietic/erythroid differentiation of agitated hPSC-MC aggregates
# Type in all cases: cell-based, human
# [1] = system: BR2 O-neg hiPSC line
# Experimental: (§1) Human pluripotent stem cell-microcarrier (HPSC-MC) aggregates generated from different hPSC lines were differentiated using 3 different CHIR doses (5, 10 and 15 μM for 24 hours) and were evaluated for T-bra (day 2) and KDR+PDGFRβ− (day 4) expression by flow cytometry, induction of key hematopoietic transcription factors by RT-PCR (day 4), hematopoietic precursor expansion (day 14) and erythroblast expansion (day 42).
# (§2) Table 2—Hematopoietic differentiation of nine human pluripotent stem cell (hPSC) lines, from expansion in agitated microcarrier culture to erythroblast expansion—This table summarises the different stages of differentiation; hPSC expansion, mesoderm induction, hematopoietic precursor and erythroblast expansion of multiple hPSC-MC aggregate lines differentiated with optimal dose of CHIR-99021. Fold-expansion of hPSC-MC aggregates following 7 days of agitated culture, hematopoietic precursors following 14 days of culture in methylcellulose medium and erythroblast expansion following 24 days in expansion medium are reported. Flow cytometric evaluation of % T-bra+ cells on day 2 and % KDR+ cells on day 4 during mesoderm induction, % CD43+ cells during hematopoietic precursor expansion, % CD235a+ cells and fetal hemoglobin expression during erythroblast expansion stage are summarised. Total erythroid cells per hPSC seeded on day 42 was calculated as number of embryoid bodies derived on day 4 per hPSC seeded*erythroblast fold expansion*percent CD235a+ erythroblast.
# (§3) Analysis of Design of experiments (DoE) outcomes and evaluation of selected conditions generated by the MODDE® software allowed the development of an optimized protocol for hematopoietic mesoderm induction of human pluripotent stem cell-microcarrier (hPSC-MC) aggregates initially expanded under continuous agitation. Approximately 2 to 4 million hPSC-MC aggregates in 3 ml of Stemline® II medium were differentiated as follows: day 1; 30 ng/ml of BMP4, 50 ng/ml VEGF165, 12 μM CHIR-99021 (Selleck Chemicals, USA), 50 ng/ml Activin A, day 2; 30 ng/ml of BMP4, 50 ng/ml VEGF165, 50 ng/ml Activin A, day 3: 30 ng/ml of BMP4, 50 ng/ml VEGF165 and 20 ng/ml bFGF. Four days post-differentiation, single cells derived by TrypLE™ Express (ThermoFisher Scientific) treatment and strained through 40 μm cell strainers (Greiner Bio-one, Germany) were used for hematopoietic precursor and erythroblast expansion and erythroblast terminal maturation as detailed herein. Hematopoietic and erythroblast differentiation were monitored by flow cytometry, quantitative real-time PCR, immunoblotting and microscopic imaging. Oxygen binding affinity of differentiated erythroblast was determined using a Hemox Analyzer (TCS Scientific Corp, USA).
# (§4) HPSC-MC aggregates were dissociated into single cells by treatment with TrypLE. Express (ThermoFisher Scientific) for 5 minutes at 37° C., passed through 40 μm cell strainer (Greiner Bio-one), centrifuged at 1300 rpm for 3 minutes to pellet cells, and rinsed once with phosphate buffered saline (PBS) before re-suspension in Stemline II medium. Two hundred thousand cells in 100 μl of Stemline II medium were transferred to a 6-well ultra-low attachment plate and cultured with Blast growth medium (BGM) for 2 weeks in static conditions as detailed herein.
# (§5) Hematopoietic precursors were mixed with equal volume of Stemline II medium containing 50 ng/ml of SCF (STEMCELL. Technologies) and 3 U/ml EPO (Peprotech, USA), for an additional 7 days. Subsequently, cells were diluted 10-fold with PBS and pelleted by centrifugation at 3000 rpm for 10 minutes. […]
# [2] = system: BR7 O-neg hiPSC line; settings: for Erythroblast expansion Fold-expansion: optimal dose of CHIR-99021, 24 days in erythroblast expansion medium (static), cumulative
# Experimental: as §1, §2, §3, §4, §5
# [3] = system: D11 O-neg hiPSC line
# Experimental: as §1, §2, §3, §4, §5
# [4] = system: D12 O-neg hiPSC line
# Experimental: as §1, §2, §3, §4, §5
# [5] = system: D5 O-neg hiPSC line; settings: for Erythroblast expansion Fold-expansion: optimal dose of CHIR-99021, 24 days in erythroblast expansion medium (static), cumulative
# Experimental: as §1, §2, §3, §4, §5
# [6] = system: D9 O-neg hiPSC line; settings: for Erythroblast expansion Fold-expansion: optimal dose of CHIR-99021, 24 days in erythroblast expansion medium (static), cumulative
# Experimental: as §1, §2, §3, §4, §5
# [7] = system: IMR90 hiPSC line; settings: for Erythroblast expansion Fold-expansion: optimal dose of CHIR-99021, 24 days in erythroblast expansion medium (static), cumulative
# Experimental: as §1, §2, §3, §4, §5
# [8] = system: X13 O-neg hiPSC line; settings: for Erythroblast expansion Fold-expansion: optimal dose of CHIR-99021, 24 days in erythroblast expansion medium (static), cumulative; for Total erythroid cells per hPSC seeded (day 42): optimal dose of CHIR-99021, CD235a+ erythroid cells
# Experimental: as §1, §2, §3, §4, §5
# [9] = 15 μM CHIR dose, day 14 post differentiation
# [10] = 15 μM CHIR for 24 hours, day 2, flow cytometry
# [11] = 15 μM CHIR for 24 hours, day 4, flow cytometry
# [12] = erythroblast expansion medium, up to day 42
# [13] = optimal dose of CHIR-99021, 14 days in methyl cellulose medium
# [14] = optimal dose of CHIR-99021, 14 days in methyl cellulose medium (static)
# [15] = optimal dose of CHIR-99021, day 2
# [16] = optimal dose of CHIR-99021, day 4
# [17] = optimal dose of CHIR-99021, erythroblast expansion stage
# [18] = optimal dose of CHIR-99021, fetal hemoglobin, flow cytometry
smiles,measurement,setting,value
"Cc1c[nH]c(-c2cnc(NCCNc3ccc(C#N)cn3)nc2-c2ccc(Cl)cc2Cl)n1 [CHIR-99021, 6-[[2-[[4-(2,4-Dichlorophenyl)-5-(5-methyl-1H-imidazol-2-yl)-2-pyrimidinyl]amino]ethyl]amino]-3-pyridinecarbonitrile]",fold-expansion of hematopoietic precursors,[1]; [9],8.07±2.06 fold
same,T-Bra+ cells,[1]; [10],20.1±2.4%
same,KDR+PDGFRβ- cells,[1]; [11],24.07±1.34%
same,erythroblast differentiation,[1]; [12],failed to differentiate into erythroid cells
same,Hematopoietic precursor expansion % CD43,[1]; [13],8.7%
same,Hematopoietic precursor expansion Fold-expansion,[1]; [14],8.1 fold
same,Mesoderm induction % T-Bra,[1]; [15],20.1%
same,Mesoderm induction % KDR+ PDGFRα−,[1]; [16],24.1%
same,fold-expansion of hematopoietic precursors,[2]; [9],5.81±0.92 fold
same,T-Bra+ cells,[2]; [10],20.8±3.8%
same,KDR+PDGFRβ- cells,[2]; [11],18.6±1.57%
same,Total erythroid cells per hPSC seeded (day 42),[2]; optimal dose of CHIR-99021,12
same,Hematopoietic precursor expansion % CD43,[2]; [13],14.3%
same,Hematopoietic precursor expansion Fold-expansion,[2]; [14],5.8 fold
same,Erythroblast expansion Fold-expansion,[2]; day 42,31.5 fold
same,Erythroblast expansion Fold-expansion,"[2]; day 42, listed as CHIR",31.48±7.7 fold
same,Mesoderm induction % T-Bra,[2]; [15],20.8%
same,Erythroblast expansion % CD235a+,[2]; [17],33.8%
same,Erythroblast expansion Hemoglobin expression,[2]; [18],95.5
same,fold-expansion of hematopoietic precursors,[3]; [9],3.2±0.33 fold
same,T-Bra+ cells,[3]; [10],33.4±4.10%
same,KDR+PDGFRβ- cells,[3]; [11],11.74±1.16%
same,erythroblast differentiation,[3]; [12],failed to differentiate into erythroid cells
same,Hematopoietic precursor expansion % CD43,[3]; [13],17.4%
same,Hematopoietic precursor expansion Fold-expansion,[3]; [14],3.2 fold
same,Mesoderm induction % T-Bra,[3]; [15],33.4%
same,Mesoderm induction % KDR+ PDGFRα−,[3]; [16],11.7%
same,fold-expansion of hematopoietic precursors,[4]; [9],5.26±1.32 fold
same,T-Bra+ cells,[4]; [10],10.6±2.78%
same,KDR+PDGFRβ- cells,[4]; [11],31.13±5.17%
same,erythroblast differentiation,[4]; [12],failed to differentiate into erythroid cells
same,Hematopoietic precursor expansion % CD43,[4]; [13],22%
same,Hematopoietic precursor expansion Fold-expansion,[4]; [14],7.9 fold
same,Mesoderm induction % T-Bra,[4]; [15],10.9%
same,Mesoderm induction % KDR+ PDGFRα−,[4]; [16],20.7%
same,fold-expansion of hematopoietic precursors,[5]; [9],7.99±0.82 fold
same,T-Bra+ cells,[5]; [10],55.6±8.26%
same,KDR+PDGFRβ- cells,[5]; [11],35.77±1.53%
same,Total erythroid cells per hPSC seeded (day 42),[5]; optimal dose of CHIR-99021,2308
same,Hematopoietic precursor expansion % CD43,[5]; [13],27.7%
same,Hematopoietic precursor expansion Fold-expansion,[5]; [14],7.9 fold
same,Erythroblast expansion Fold-expansion,[5]; day 42,3712 fold
same,Erythroblast expansion Fold-expansion,"[5]; day 42, listed as CHIR",3712±1651 fold
same,Mesoderm induction % T-Bra,[5]; [15],55.6%
same,Erythroblast expansion % CD235a+,[5]; [17],74.6%
same,Erythroblast expansion Hemoglobin expression,[5]; [18],99.2
same,T-Bra+ cells,[6]; [10],39±5.37%
same,KDR+PDGFRβ- cells,[6]; [11],18.07±0.6%
same,Total erythroid cells per hPSC seeded (day 42),[6]; optimal dose of CHIR-99021,63
same,Hematopoietic precursor expansion % CD43,[6]; [13],21.3%
same,Hematopoietic precursor expansion Fold-expansion,[6]; [14],6.0 fold
same,Erythroblast expansion Fold-expansion,[6]; day 42,121 fold
same,Erythroblast expansion Fold-expansion,"[6]; day 42, listed as CHIR",121.2±36.89 fold
same,Mesoderm induction % T-Bra,[6]; [15],41.8%
same,Erythroblast expansion % CD235a+,[6]; [17],57.5%
same,Erythroblast expansion Hemoglobin expression,[6]; [18],97.8
same,T-Bra+ cells,[7]; [10],17.22±7.4%
same,KDR+PDGFRβ- cells,[7]; [11],14.2±1.69%
same,Total erythroid cells per hPSC seeded (day 42),[7]; optimal dose of CHIR-99021,1300
same,Hematopoietic precursor expansion % CD43,[7]; [13],21.9%
same,Hematopoietic precursor expansion Fold-expansion,[7]; [14],7.9 fold
same,Erythroblast expansion Fold-expansion,[7]; day 42,918.1 fold
same,Erythroblast expansion Fold-expansion,"[7]; day 42, listed as CHIR",918.1±342.4 fold
same,Mesoderm induction % T-Bra,[7]; [15],17.2%
same,Erythroblast expansion % CD235a+,[7]; [17],75.9%
same,Erythroblast expansion Hemoglobin expression,[7]; [18],98.1
same,fold-expansion of hematopoietic precursors,[8]; [9],9.93±0.28 fold
same,T-Bra+ cells,[8]; [10],60.9±8.55%
same,KDR+PDGFRβ- cells,[8]; [11],40.8±1.34%
same,Hematopoietic precursor expansion % CD43,[8]; [13],43.9%
same,Hematopoietic precursor expansion Fold-expansion,[8]; [14],9.9 fold
same,Erythroblast expansion Fold-expansion,[8]; day 42,12605 fold
same,Erythroblast expansion Fold-expansion,"[8]; day 42, listed as CHIR",12605±2126 fold
same,Total erythroid cells per hPSC seeded (day 42),[8],7607
same,Total erythroid cells per hPSC seeded (day 42),[8]; listed as CHIR,7607±1016
same,Mesoderm induction % T-Bra,[8]; [15],60.9%
same,Erythroblast expansion % CD235a+,[8]; [17],67.4%
same,Erythroblast expansion Hemoglobin expression,[8]; [18],96.9

# Source: patent US12104173B2, “Method for differentiation of human pluripotent stem cell lines in suspension culture” (AGENCY FOR SCIENCE, TECHNOLOGY AND RESEARCH, priority 2018, dated 2024)
